How the values were obtained:
HTN-BRD4 and 0tfOGT = target: T1, HTN-BRD4 and 0tfOGT (Homo sapiens, UniProt O60885+P62942, F37V); assay: Washout / reversibility study, HTN-BRD4:0tfOGT; assay type: cell-based; conditions: 500 nM 4 h pretreatment, then fresh media
T1 construct: HaloTag fragment; 0TPR(463-1046)-; expressed in transfected cells; host or cells: HEK293T
Description: FIGS. 7A-7E: Specificity and reversibility of OGTAC strategy. […] (B), Constructs of fOGT with 13.5 (rounded to 13) TPR and 0TPR-fOGT (0tfOGT). (C). […] (D), Dose-dependent O-GlcNAcylation profile of HTN-BRD4 by OGTAC-4 treatment. HEK293T cells expressing HTN-BRD4:0tfOGT=1:0.05 were treated with an increasing concentration of OGTAC-4 for 4 h. Then, the O-GlcNAcylation level of HTN-BRD4 was assessed by immunoblot after IP using BRD4 antibody. All quantifications are shown as mean±s.e.m. of n=3 biologically independent experiments. (E), Reversible effect of OGTAC-4 on HTN-BRD4 can be achieved by addition of AP1867. HEK293T cells expressing HTN-BRD4:0tfOGT=1:0.05 were pretreated with OGTAC-4 (500 nM) or DMSO for 4 h, and culturing media were replaced by fresh media with DMSO or AP1867 (50 μM) for the indicated time. The quantifications in right panel were conducted by the normalizing the fold-change (OGTAC-4/DMSO) for each post-washout time point to the value of 4 h pre-treatment. All quantifications are shown as mean±s.e.m. of 3 independent biological repeats. Statistical significance was calculated with ordinary one-way ANOVA comparing samples with different transfection conditions or OGTAC-treatment. ns, p≥0.05; *p<0.05; **p<0.01; ***p<0.001; ****p<0.0001.
To assess the potential application of our OGTAC strategy in downstream biological studies, we investigated the reversibility of OGTACs. […] Additionally. the O-GlcNAc level of BRD4 returned to baseline after 6 hours of AP1867 treatment, confirming the reversibility of the induction effect (FIG. 7E).
For each IP reaction, 2.2×10^6 HEK293T cells were seed in 10 cm dish. After cells attached, transfection reagents and plasmids were prepared and added in DMEM. After 24 h transfection, media were replaced by fresh warm complete media with DMSO or probes. For washout study, after 4 h treatment, media with DMSO or OGTAC-4 (500 nM) were replaced by fresh media with DMSO or AP1867 (50 μM) for further incubation. After certain time of OGTACs treatment, cells were collected by cold PBS and lysed by 200 μL complete IP lysis buffer. […]

HTN-EZH2 = assay: O-GlcNAc inducing effects on HTN-EZH2; assay type: cell-based; conditions: HTN-EZH2:fOGT=1:0.01
From the text: FIG. 13: Evaluation of O-GlcNAc inducing effects of OGTAC-1/2/3 on HTN-EZH2 and dose-dependent effect of OGTAC-1 on HTN-EZH2. In the treatment group, transfection ratio is HTN-EZH2:fOGT:=1:0.01.
As there are >20,000 commercially available plasmids for HaloTag-fused human proteins,46 OGTACs can be rapidly tested in a wide range of POIs, enabling time- and dose-dependent manipulation of their specific O-GlcNAcylation level.

T1 sequence (P62942 whole entry F37V, stated change not applied, other chains not shown, the tested form may be a part): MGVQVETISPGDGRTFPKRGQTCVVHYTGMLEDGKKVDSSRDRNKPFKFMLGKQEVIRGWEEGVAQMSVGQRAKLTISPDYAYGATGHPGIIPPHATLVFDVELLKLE

Row | O-GlcNAc induction and ternary complex formation after washout (HTN-BRD4 and 0tfOGT) | Compound | O-GlcNAcylation-inducing effect on HTN-EZH2 (HTN-EZH2)
1 | persisted post-washout | CC[C@H](C(=O)N1CCCC[C@H]1C(=O)O[C@H](CCc1ccc(OC)c(OC)c1)c1cccc(OCC(=O)NCCCCCCNC(=O)C[C@@H]2N=C(c3ccc(Cl)cc3)c3c(sc(C)c3C)-n3c(C)nnc32)c1)c1cc(OC)c(OC)c(OC)c1 [OGTAC-4, (R)-1-(3-(2-((6-(2-((S)-4-(4-chlorophenyl)-2,3,9-trimethyl-6H-thieno[3,2-f[]8 1,2,4]triazolo[4,3-a][1,4]diazepin-6-yl)acetamido)hexyl)amino)-2-oxoethoxy)phenyl)-3-(3,4-dimethoxyphenyl)propyl (S)-1-((S)-2-(3,4,5-trimethoxyphenyl)butanoyl)piperidine-2-carboxylate] | 
2 |  | CC[C@H](C(=O)N1CCCC[C@H]1C(=O)O[C@H](CCc1ccc(OC)c(OC)c1)c1cccc(OCC(=O)NCCOCCOCCCCCCCl)c1)c1cc(OC)c(OC)c(OC)c1 [OGTAC-1, (R)-1-(3-(2-((2-(2-((6-chlorohexyl)oxy)ethoxy)ethyl)amino)-2-oxoethoxy)phenyl)-3-(3,4-dimethoxyphenyl)propyl (S)-1-((S)-2-(3,4,5-trimethoxyphenyl)butanoyl) piperidine-2-carboxylate] | highest O-GlcNAcylation-inducing effects among the three OGTACs

Reference: patent publication US20250035641A1, “COMPOSITIONS AND METHODS RELATED TO PROTEIN LABELING” (The Chinese University of Hong Kong, priority 2023, published 2025)
